Data on three compounds can be found in PubChem BioAssay AID1259407 (Chemical Carcinogenesis Research Information System (CCRIS), 2018).

Calls of active or inactive are those of the source. The rule behind the calls is not given here.

The data set relates to CCRIS mutagenicity, Ames/micronucleus/aberration tests. Nature of the data set: CCRIS mutagenicity studies.
The mark [1] stands for this setting: Test System: AMES SALMONELLA TYPHIMURIUM, Strain/Indicator: TA98, Metabolic Activation: NONE, Method: PREINCUBATION

For the compound `OCCN(CCO)CCO`, the mutagenic call by setting is: (End Point: IN VITRO CHROMOSOMAL ABERRATIONS, Test System: CHINESE HAMSTER OVARY CELLS, Metabolic Activation: NONE) “inactive; negative”; (End Point: IN VITRO CHROMOSOMAL ABERRATIONS, Test System: CHINESE HAMSTER OVARY CELLS, Metabolic Activation: RAT, LIVER, S-9, AROCLOR 1254) “inactive; negative”; (End Point: IN VITRO CHROMOSOMAL ABERRATIONS, Test System: CHO, Metabolic Activation: NONE) “inactive; negative”; (End Point: IN VITRO CHROMOSOMAL ABERRATIONS, Test System: CHO, Metabolic Activation: RAT, LIVER, S-9, AROCLOR 1254) “inactive; negative”; (End Point: IN VIVO MICRONUCLEUS, Test System: POLYCHROMATIC BLOOD LYMPHOCYTES, Species: MOUSE, Strain/Sex: B6C3F1/MALE, FEMALE, Route: DERMAL) “inactive; negative”; (Test System: AMES SALMONELLA TYPHIMURIUM, Strain/Indicator: TA98, Metabolic Activation: HAMSTER LIVER S-9, AROCLOR-1254 (10%), Method: PREINCUBATION) “inactive; negative”. Besides, the mutagenic call (Test System: AMES SALMONELLA TYPHIMURIUM, Strain/Indicator: TA98, Metabolic Activation: HAMSTER, LIVER, S-9 (10%), AROCLOR 1254, Method: PREINCUBATION) is “inactive; negative”; the mutagenic call under setting [1] is “inactive; negative”; the mutagenic call (Test System: AMES SALMONELLA TYPHIMURIUM, Strain/Indicator: TA98, Metabolic Activation: RAT LIVER S-9, AROCLOR-1254 (10%), Method: PREINCUBATION) is “inactive; negative”; the mutagenic call (Test System: AMES SALMONELLA TYPHIMURIUM, Strain/Indicator: TA98, Metabolic Activation: RAT, LIVER, S-9 (10%), AROCLOR 1254, Method: PREINCUBATION) is “inactive; negative”; the mutagenic call (Test System: AMES SALMONELLA TYPHIMURIUM, Strain/Indicator: TA100, Metabolic Activation: HAMSTER LIVER S-9, AROCLOR-1254 (10%), Method: PREINCUBATION) is “inactive; negative”; the mutagenic call (Test System: AMES SALMONELLA TYPHIMURIUM, Strain/Indicator: TA100, Metabolic Activation: HAMSTER, LIVER, S-9 (10%), AROCLOR 1254, Method: PREINCUBATION) was “inactive; negative”. In addition, the mutagenic call runs as follows: (Test System: AMES SALMONELLA TYPHIMURIUM, Strain/Indicator: TA100, Metabolic Activation: NONE, Method: PREINCUBATION) “inactive; negative”; (Test System: AMES SALMONELLA TYPHIMURIUM, Strain/Indicator: TA100, Metabolic Activation: RAT LIVER S-9, AROCLOR-1254 (10%), Method: PREINCUBATION) “inactive; negative”; (Test System: AMES SALMONELLA TYPHIMURIUM, Strain/Indicator: TA100, Metabolic Activation: RAT, LIVER, S-9 (10%), AROCLOR 1254, Method: PREINCUBATION) “inactive; negative”; (Test System: AMES SALMONELLA TYPHIMURIUM, Strain/Indicator: TA1535, Metabolic Activation: HAMSTER LIVER S-9, AROCLOR-1254 (10%), Method: PREINCUBATION) “inactive; negative”; (Test System: AMES SALMONELLA TYPHIMURIUM, Strain/Indicator: TA1535, Metabolic Activation: HAMSTER, LIVER, S-9 (10%), AROCLOR 1254, Method: PREINCUBATION) “inactive; negative”; (Test System: AMES SALMONELLA TYPHIMURIUM, Strain/Indicator: TA1535, Metabolic Activation: NONE, Method: PREINCUBATION) “inactive; negative”. The mutagenic call (Test System: AMES SALMONELLA TYPHIMURIUM, Strain/Indicator: TA1535, Metabolic Activation: RAT LIVER S-9, AROCLOR-1254 (10%), Method: PREINCUBATION) is “inactive; negative”; the mutagenic call (Test System: AMES SALMONELLA TYPHIMURIUM, Strain/Indicator: TA1535, Metabolic Activation: RAT, LIVER, S-9 (10%), AROCLOR 1254, Method: PREINCUBATION) was “inactive; negative”; the mutagenic call (Test System: AMES SALMONELLA TYPHIMURIUM, Strain/Indicator: TA1537, Metabolic Activation: HAMSTER LIVER S-9, AROCLOR-1254 (10%), Method: PREINCUBATION) is “inactive; negative”; the mutagenic call (Test System: AMES SALMONELLA TYPHIMURIUM, Strain/Indicator: TA1537, Metabolic Activation: HAMSTER, LIVER, S-9 (10%), AROCLOR 1254, Method: PREINCUBATION) was “inactive; negative”; the mutagenic call (Test System: AMES SALMONELLA TYPHIMURIUM, Strain/Indicator: TA1537, Metabolic Activation: NONE, Method: PREINCUBATION) is “inactive; negative”; the mutagenic call (Test System: AMES SALMONELLA TYPHIMURIUM, Strain/Indicator: TA1537, Metabolic Activation: RAT LIVER S-9, AROCLOR-1254 (10%), Method: PREINCUBATION) is “inactive; negative”. Moreover, the mutagenic call (Test System: AMES SALMONELLA TYPHIMURIUM, Strain/Indicator: TA1537, Metabolic Activation: RAT, LIVER, S-9 (10%), AROCLOR 1254, Method: PREINCUBATION) was “inactive; negative”.

On to `CC(C)OC(=O)C=Cc1ccc([N+](=O)[O-])o1`, for which the mutagenic call under setting [1] was “active; positive”.

As to `NC(CO)Cc1cnc[nH]1` (stereo not drawn), the mutagenic call is, setting by setting: (Test System: MOUSE LYMPHOMA, Strain/Indicator: L5178Y (TK+/TK-), Metabolic Activation: NONE, Method: SUSPENSION/PLATE) “inactive; negative. reevaluation of results: negative”; (Test System: MOUSE LYMPHOMA, Strain/Indicator: L5178Y (TK+/TK-), Metabolic Activation: RAT, LIVER, S-9, AROCLOR 1254, Method: SUSPENSION/PLATE) “inactive; negative. reevaluation of results: negative”.
